ChEMBL document CHEMBL1201862, “PubChem BioAssay data set” (2004)
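Following 48 hours of exposure in 96-well plates, responses at five concentrations were used to interpolate endpoints linearly. The concentration for 50% growth inhibition is given as GI50.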 The source made the active and inactive calls. No stated cut-off is given here; in the data, active = GI50 up to about 1.1 µM and inactive = higher.

Legend:
Assay in all cases: NCI anticancer screen, dose series, 48 h
LXFL 529 = tested on: LXFL 529
M19-MEL = tested on: M19-MEL
HOP-18 = tested on: HOP-18
KM-20L2 = tested on: KM-20L2
DLD-1 = tested on: DLD-1
SNB-78 = tested on: SNB-78
DMS-114 = tested on: DMS-114
RXF 631 = tested on: RXF 631
XF498 = tested on: XF498

| SMILES | GI50 (LXFL 529) | GI50 (M19-MEL) | GI50 (HOP-18) | GI50 (KM-20L2) | GI50 (DLD-1) | GI50 (SNB-78) | GI50 (DMS-114) | GI50 (RXF 631) | GI50 (XF498) |
| --- | --- | --- | --- | --- | --- | --- | --- | --- | --- |
| COc1cc2c(c3c1c(=O)c1ccccc1n3C)C=CC(C)(C)O2 [ACRONINE] | 94 µM (inactive) | 72.3 µM (inactive) | 56 µM (inactive) | 49.9 µM (inactive) | > 100 µM (inactive) | > 100 µM (inactive) | 45.4 µM (inactive) |  |  |
| Cc1cc2c(c3nocc13)C(=O)c1ccccc1C2=O | > 100 µM (inactive) | > 100 µM (inactive) | > 100 µM (inactive) | > 100 µM (inactive) | > 100 µM (inactive) |  | > 100 µM (inactive) | > 100 µM (inactive) |  |
| COC(=O)c1cc2c(c(C(=O)OC)c1O)C(=O)C=CC2=O | 11.6 µM (inactive) | > 43.8 µM (inactive) | 4.88 µM (inactive) | > 41.6 µM (inactive) | > 21.5 µM (inactive) | > 42.8 µM (inactive) | > 48.6 µM (inactive) | 34.8 µM (inactive) | > 9.1 µM (inactive) |
| O=C(COC(=O)c1cccc2c(=O)c3ccccc3[nH]c12)Nc1ccccc1 | 28.6 µM (inactive) | 33.6 µM (inactive) | > 100 µM (inactive) | 79.6 µM (inactive) | 65 µM (inactive) |  | 22.3 µM (inactive) | 28.5 µM (inactive) | 32.1 µM (inactive) |
| CCOC12SC(Nc3ccc(C)cc3)=NN1C(=S)N(C)N=C2C (stereo not drawn) | > 100 µM (inactive) | > 100 µM (inactive) | > 100 µM (inactive) | > 100 µM (inactive) | > 100 µM (inactive) |  | > 100 µM (inactive) |  |  |
| O=C(CSc1nnc(-c2ccc(/N=C\c3ccc(Cl)cc3)cc2)o1)Nc1ccc(Cl)cc1 | > 100 µM (inactive) | > 100 µM (inactive) | > 100 µM (inactive) | > 100 µM (inactive) |  | > 100 µM (inactive) | > 100 µM (inactive) |  | > 100 µM (inactive) |
| [N-]=[N+]=NC1C(Br)C(=O)NC(=O)N1[C@H]1C[C@H](O)[C@@H](CO)O1 (stereo partly drawn) | > 100 µM (inactive) |  |  | > 100 µM (inactive) | > 100 µM (inactive) | > 100 µM (inactive) |  |  | > 100 µM (inactive) |
| Cc1ccc(NC(=O)CC2C(=O)Nc3ccccc3[S+]2[O-])c(C)c1 (stereo not drawn) | 16.5 µM (inactive) | 13.1 µM (inactive) | 28.1 µM (inactive) | 12.3 µM (inactive) | 15.3 µM (inactive) | 16.4 µM (inactive) | 7.94 µM (inactive) | 17.2 µM (inactive) | 10.4 µM (inactive) |
| COc1ccc2nc(-c3ccccn3)cc(O)c2c1 | 41.5 µM (inactive) | 31.8 µM (inactive) | 61.7 µM (inactive) |  | 52.6 µM (inactive) | 99.3 µM (inactive) |  | 85.1 µM (inactive) |  |
| N/N=c1\c2ccccc2c2cc3c(cc12)/c(=N/N)c1ccccc13 | > 100 µM (inactive) | > 100 µM (inactive) | > 100 µM (inactive) | > 100 µM (inactive) | > 100 µM (inactive) | > 100 µM (inactive) | > 100 µM (inactive) | > 100 µM (inactive) |  |
| CC[S+](C)c1ccc(-c2c3nc(c(-c4ccc([S+](C)CC)cc4)c4ccc([nH]4)c(-c4ccc([S+](C)CC)cc4)c4nc(c(-c5ccc([S+](C)CC)cc5)c5ccc2[nH]5)C=C4)C=C3)cc1.[O-][Cl+3]([O-])([O-])[O-].[O-][Cl+3]([O-])([O-])[O-].[O-][Cl+3]([O-])([O-])[O-].[O-][Cl+3]([O-])([O-])[O-] (stereo not drawn) | 10.1 µM (inactive) | 40.9 µM (inactive) |  | 14.1 µM (inactive) |  | 56.2 µM (inactive) |  |  | 0.881 µM (active) |
| COc1ccc(C2CC(c3cc(C)ccc3O)=NC(N)=N2)cc1 (stereo not drawn) | > 100 µM (inactive) | > 100 µM (inactive) | > 100 µM (inactive) | > 100 µM (inactive) | > 100 µM (inactive) | > 100 µM (inactive) | > 100 µM (inactive) |  | > 100 µM (inactive) |
| CNc1nnnn1C1OC(CO)C(O)C1O (stereo not drawn) | > 100 µM (inactive) | > 100 µM (inactive) |  | > 100 µM (inactive) | > 100 µM (inactive) | > 100 µM (inactive) | > 100 µM (inactive) | > 100 µM (inactive) | 14.2 µM (inactive) |
